Laboratory results reported in ChEMBL document CHEMBL1147701, “Novel 4-anilinoquinazolines with C-6 carbon-linked side chains: synthesis and structure-activity relationship of a series of potent, orally active, EGF receptor tyrosine kinase inhibitors” (Bioorg Med Chem Lett, 2006).

Molecular target: Glycogen synthase kinase-3 beta (Homo sapiens, UniProt P49841)
Test: Inhibition of GSK3-beta

Glycogen synthase kinase-3 beta, sequence (P49841 whole entry): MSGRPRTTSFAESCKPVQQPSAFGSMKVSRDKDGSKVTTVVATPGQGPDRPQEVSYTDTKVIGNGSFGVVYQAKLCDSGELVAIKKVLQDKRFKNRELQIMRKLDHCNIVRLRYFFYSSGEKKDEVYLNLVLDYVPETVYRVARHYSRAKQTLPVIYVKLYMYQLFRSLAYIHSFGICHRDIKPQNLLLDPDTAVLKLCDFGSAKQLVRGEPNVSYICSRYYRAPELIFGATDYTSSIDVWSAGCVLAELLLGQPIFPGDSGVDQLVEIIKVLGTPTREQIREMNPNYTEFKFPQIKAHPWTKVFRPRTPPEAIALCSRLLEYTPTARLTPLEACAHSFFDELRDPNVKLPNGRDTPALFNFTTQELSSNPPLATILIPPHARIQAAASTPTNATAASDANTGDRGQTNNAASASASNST

IC50, > 10 µM:
COc1cc2ncnc(Nc3cccc(Cl)c3F)c2cc1CN1CCC1C(N)=O (stereo unspecified)
COCC[C@@H](C(N)=O)N(C)Cc1cc2c(Nc3cccc(Cl)c3F)ncnc2cc1OC
COc1cc2ncnc(Nc3cccc(Cl)c3F)c2cc1CN1CCOCC1C(N)=O (stereo unspecified)
COc1cc2ncnc(Nc3cccc(Cl)c3F)c2cc1CN(C)[C@@H](CO)C(N)=O
COc1cc2ncnc(Nc3cccc(Cl)c3F)c2cc1CN1CCC[C@@H]1C(N)=O
CNC(=O)[C@@H](C)N(C)Cc1cc2c(Nc3cccc(Cl)c3F)ncnc2cc1OC

Molecular target: c-Jun N-terminal kinase, JNK (Homo sapiens, UniProt P45983+P53779+P45984)
Test: Inhibition of JNK
Type: protein assay

IC50, > 10 µM:
COc1cc2ncnc(Nc3cccc(Cl)c3F)c2cc1CN1CCC1C(N)=O (stereo unspecified)
COCC[C@@H](C(N)=O)N(C)Cc1cc2c(Nc3cccc(Cl)c3F)ncnc2cc1OC
COc1cc2ncnc(Nc3cccc(Cl)c3F)c2cc1CN1CCOCC1C(N)=O (stereo unspecified)
COc1cc2ncnc(Nc3cccc(Cl)c3F)c2cc1CN(C)[C@@H](CO)C(N)=O
COc1cc2ncnc(Nc3cccc(Cl)c3F)c2cc1CN1CCC[C@@H]1C(N)=O
CNC(=O)[C@@H](C)N(C)Cc1cc2c(Nc3cccc(Cl)c3F)ncnc2cc1OC

Molecular target: MAP kinase p38 (Homo sapiens, UniProt O15264+Q15759+Q16539+P53778)

IC50, > 10 µM:
COc1cc2ncnc(Nc3cccc(Cl)c3F)c2cc1CN1CCC1C(N)=O (stereo unspecified)
COCC[C@@H](C(N)=O)N(C)Cc1cc2c(Nc3cccc(Cl)c3F)ncnc2cc1OC
COc1cc2ncnc(Nc3cccc(Cl)c3F)c2cc1CN(C)[C@@H](CO)C(N)=O
CNC(=O)[C@@H](C)N(C)Cc1cc2c(Nc3cccc(Cl)c3F)ncnc2cc1OC

Molecular target: cAMP-dependent protein kinase (PKA) (Homo sapiens, UniProt P22694+P17612+P22612)
Test: Inhibition of PKA
Type: protein assay

IC50, > 10 µM:
COc1cc2ncnc(Nc3cccc(Cl)c3F)c2cc1CN1CCC1C(N)=O (stereo unspecified)
COCC[C@@H](C(N)=O)N(C)Cc1cc2c(Nc3cccc(Cl)c3F)ncnc2cc1OC
COc1cc2ncnc(Nc3cccc(Cl)c3F)c2cc1CN1CCOCC1C(N)=O (stereo unspecified)
COc1cc2ncnc(Nc3cccc(Cl)c3F)c2cc1CN(C)[C@@H](CO)C(N)=O
COc1cc2ncnc(Nc3cccc(Cl)c3F)c2cc1CN1CCC[C@@H]1C(N)=O
CNC(=O)[C@@H](C)N(C)Cc1cc2c(Nc3cccc(Cl)c3F)ncnc2cc1OC

Molecular target: T1, Serine/threonine-protein kinase Sgk1 (Homo sapiens, UniProt O00141)
T1 sequence (O00141 whole entry): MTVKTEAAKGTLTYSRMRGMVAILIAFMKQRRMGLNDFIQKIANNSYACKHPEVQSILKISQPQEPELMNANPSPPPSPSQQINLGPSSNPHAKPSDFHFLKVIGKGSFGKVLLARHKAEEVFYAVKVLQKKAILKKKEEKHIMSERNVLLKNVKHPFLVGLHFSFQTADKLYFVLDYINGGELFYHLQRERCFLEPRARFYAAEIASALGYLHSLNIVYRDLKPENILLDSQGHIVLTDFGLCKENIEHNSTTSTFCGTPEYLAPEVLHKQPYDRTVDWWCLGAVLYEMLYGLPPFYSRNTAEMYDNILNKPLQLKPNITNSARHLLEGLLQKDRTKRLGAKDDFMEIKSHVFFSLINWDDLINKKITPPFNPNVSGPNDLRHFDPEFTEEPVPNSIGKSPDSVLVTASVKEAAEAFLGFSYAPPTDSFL
Test: Inhibition of SGK

IC50, > 10 µM:
COc1cc2ncnc(Nc3cccc(Cl)c3F)c2cc1CN1CCC1C(N)=O (stereo unspecified)
COCC[C@@H](C(N)=O)N(C)Cc1cc2c(Nc3cccc(Cl)c3F)ncnc2cc1OC
COc1cc2ncnc(Nc3cccc(Cl)c3F)c2cc1CN1CCOCC1C(N)=O (stereo unspecified)
COc1cc2ncnc(Nc3cccc(Cl)c3F)c2cc1CN(C)[C@@H](CO)C(N)=O
COc1cc2ncnc(Nc3cccc(Cl)c3F)c2cc1CN1CCC[C@@H]1C(N)=O
CNC(=O)[C@@H](C)N(C)Cc1cc2c(Nc3cccc(Cl)c3F)ncnc2cc1OC

Molecular target: Vascular endothelial growth factor receptor 2 (Homo sapiens, UniProt P35968)
Sequence (P35968 whole entry): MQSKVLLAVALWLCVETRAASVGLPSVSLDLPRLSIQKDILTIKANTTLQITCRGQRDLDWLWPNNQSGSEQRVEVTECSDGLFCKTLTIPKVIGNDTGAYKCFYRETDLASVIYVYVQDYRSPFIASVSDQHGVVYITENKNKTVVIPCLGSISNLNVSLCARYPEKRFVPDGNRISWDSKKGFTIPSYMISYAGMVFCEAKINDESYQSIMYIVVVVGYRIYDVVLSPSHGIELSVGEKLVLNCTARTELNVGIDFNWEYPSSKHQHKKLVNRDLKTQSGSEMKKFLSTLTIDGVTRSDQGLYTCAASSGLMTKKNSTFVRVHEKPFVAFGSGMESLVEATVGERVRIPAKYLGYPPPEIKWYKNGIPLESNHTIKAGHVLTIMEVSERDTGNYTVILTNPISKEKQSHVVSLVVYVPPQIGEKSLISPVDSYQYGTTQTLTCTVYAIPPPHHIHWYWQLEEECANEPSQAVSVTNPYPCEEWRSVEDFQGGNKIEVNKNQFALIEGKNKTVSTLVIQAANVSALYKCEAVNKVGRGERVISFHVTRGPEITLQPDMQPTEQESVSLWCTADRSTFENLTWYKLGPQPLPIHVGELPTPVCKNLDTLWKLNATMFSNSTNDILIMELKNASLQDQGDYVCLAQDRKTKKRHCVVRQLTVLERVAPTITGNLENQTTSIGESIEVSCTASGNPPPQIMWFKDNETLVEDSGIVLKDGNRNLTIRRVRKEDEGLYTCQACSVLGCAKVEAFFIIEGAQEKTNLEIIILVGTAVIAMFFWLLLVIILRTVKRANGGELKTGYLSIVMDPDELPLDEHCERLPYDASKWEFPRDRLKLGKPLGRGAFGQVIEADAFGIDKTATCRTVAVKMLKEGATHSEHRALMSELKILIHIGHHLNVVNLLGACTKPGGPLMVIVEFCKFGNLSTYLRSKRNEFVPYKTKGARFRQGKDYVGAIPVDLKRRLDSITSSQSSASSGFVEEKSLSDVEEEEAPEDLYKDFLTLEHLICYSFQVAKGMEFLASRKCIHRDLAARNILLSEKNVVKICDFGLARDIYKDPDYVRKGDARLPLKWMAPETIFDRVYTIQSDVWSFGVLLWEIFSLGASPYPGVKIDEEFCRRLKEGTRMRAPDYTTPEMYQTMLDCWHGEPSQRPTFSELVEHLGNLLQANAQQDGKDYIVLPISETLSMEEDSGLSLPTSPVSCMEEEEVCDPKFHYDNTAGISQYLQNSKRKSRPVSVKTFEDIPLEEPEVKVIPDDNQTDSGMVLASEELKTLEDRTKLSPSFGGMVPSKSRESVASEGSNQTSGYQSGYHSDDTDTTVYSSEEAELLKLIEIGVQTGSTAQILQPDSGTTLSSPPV

IC50, > 10 µM:
COc1cc2ncnc(Nc3cccc(Cl)c3F)c2cc1CN1CCC1C(N)=O (stereo unspecified)
COCC[C@@H](C(N)=O)N(C)Cc1cc2c(Nc3cccc(Cl)c3F)ncnc2cc1OC
COc1cc2ncnc(Nc3cccc(Cl)c3F)c2cc1CN1CCOCC1C(N)=O (stereo unspecified)
COc1cc2ncnc(Nc3cccc(Cl)c3F)c2cc1CN(C)[C@@H](CO)C(N)=O
COc1cc2ncnc(Nc3cccc(Cl)c3F)c2cc1CN1CCC[C@@H]1C(N)=O
CNC(=O)[C@@H](C)N(C)Cc1cc2c(Nc3cccc(Cl)c3F)ncnc2cc1OC

Molecular target: Tyrosine-protein kinase Lck (Homo sapiens, UniProt P06239)
Sequence (P06239 whole entry): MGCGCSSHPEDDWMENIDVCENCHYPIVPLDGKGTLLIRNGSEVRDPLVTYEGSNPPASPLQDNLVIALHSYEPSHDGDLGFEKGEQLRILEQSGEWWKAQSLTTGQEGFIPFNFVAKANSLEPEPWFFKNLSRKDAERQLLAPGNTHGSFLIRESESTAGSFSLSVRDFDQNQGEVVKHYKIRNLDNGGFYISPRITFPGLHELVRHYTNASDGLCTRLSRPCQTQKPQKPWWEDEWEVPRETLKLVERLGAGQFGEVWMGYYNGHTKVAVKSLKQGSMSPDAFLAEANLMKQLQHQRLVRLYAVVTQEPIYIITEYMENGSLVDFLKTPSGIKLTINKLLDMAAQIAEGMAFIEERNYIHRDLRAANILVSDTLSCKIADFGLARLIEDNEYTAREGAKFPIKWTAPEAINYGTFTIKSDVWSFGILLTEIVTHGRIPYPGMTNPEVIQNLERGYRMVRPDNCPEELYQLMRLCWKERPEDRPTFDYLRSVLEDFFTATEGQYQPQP

IC50, > 10 µM:
COCC[C@@H](C(N)=O)N(C)Cc1cc2c(Nc3cccc(Cl)c3F)ncnc2cc1OC
COc1cc2ncnc(Nc3cccc(Cl)c3F)c2cc1CN1CCOCC1C(N)=O (stereo unspecified)
COc1cc2ncnc(Nc3cccc(Cl)c3F)c2cc1CN1CCC[C@@H]1C(N)=O
CNC(=O)[C@@H](C)N(C)Cc1cc2c(Nc3cccc(Cl)c3F)ncnc2cc1OC

Molecular target: Mitogen-activated protein kinase 1 (Homo sapiens, UniProt P28482)
Sequence (P28482 whole entry): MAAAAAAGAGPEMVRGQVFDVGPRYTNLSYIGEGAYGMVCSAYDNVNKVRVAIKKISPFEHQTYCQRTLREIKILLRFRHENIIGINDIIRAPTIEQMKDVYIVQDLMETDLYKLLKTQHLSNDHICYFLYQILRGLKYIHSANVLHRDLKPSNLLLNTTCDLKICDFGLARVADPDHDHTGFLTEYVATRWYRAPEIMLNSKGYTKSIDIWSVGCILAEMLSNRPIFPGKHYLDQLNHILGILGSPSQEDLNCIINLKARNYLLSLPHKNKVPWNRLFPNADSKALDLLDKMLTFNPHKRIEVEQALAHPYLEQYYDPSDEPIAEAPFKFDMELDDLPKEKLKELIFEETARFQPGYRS
Test: Inhibition of MAPK

IC50, > 10 µM:
COc1cc2ncnc(Nc3cccc(Cl)c3F)c2cc1CN1CCC1C(N)=O (stereo unspecified)
COCC[C@@H](C(N)=O)N(C)Cc1cc2c(Nc3cccc(Cl)c3F)ncnc2cc1OC
COc1cc2ncnc(Nc3cccc(Cl)c3F)c2cc1CN1CCOCC1C(N)=O (stereo unspecified)
COc1cc2ncnc(Nc3cccc(Cl)c3F)c2cc1CN(C)[C@@H](CO)C(N)=O
COc1cc2ncnc(Nc3cccc(Cl)c3F)c2cc1CN1CCC[C@@H]1C(N)=O
CNC(=O)[C@@H](C)N(C)Cc1cc2c(Nc3cccc(Cl)c3F)ncnc2cc1OC

Molecular target: Rho-associated protein kinase 2 (Homo sapiens, UniProt O75116)
Sequence (O75116 whole entry): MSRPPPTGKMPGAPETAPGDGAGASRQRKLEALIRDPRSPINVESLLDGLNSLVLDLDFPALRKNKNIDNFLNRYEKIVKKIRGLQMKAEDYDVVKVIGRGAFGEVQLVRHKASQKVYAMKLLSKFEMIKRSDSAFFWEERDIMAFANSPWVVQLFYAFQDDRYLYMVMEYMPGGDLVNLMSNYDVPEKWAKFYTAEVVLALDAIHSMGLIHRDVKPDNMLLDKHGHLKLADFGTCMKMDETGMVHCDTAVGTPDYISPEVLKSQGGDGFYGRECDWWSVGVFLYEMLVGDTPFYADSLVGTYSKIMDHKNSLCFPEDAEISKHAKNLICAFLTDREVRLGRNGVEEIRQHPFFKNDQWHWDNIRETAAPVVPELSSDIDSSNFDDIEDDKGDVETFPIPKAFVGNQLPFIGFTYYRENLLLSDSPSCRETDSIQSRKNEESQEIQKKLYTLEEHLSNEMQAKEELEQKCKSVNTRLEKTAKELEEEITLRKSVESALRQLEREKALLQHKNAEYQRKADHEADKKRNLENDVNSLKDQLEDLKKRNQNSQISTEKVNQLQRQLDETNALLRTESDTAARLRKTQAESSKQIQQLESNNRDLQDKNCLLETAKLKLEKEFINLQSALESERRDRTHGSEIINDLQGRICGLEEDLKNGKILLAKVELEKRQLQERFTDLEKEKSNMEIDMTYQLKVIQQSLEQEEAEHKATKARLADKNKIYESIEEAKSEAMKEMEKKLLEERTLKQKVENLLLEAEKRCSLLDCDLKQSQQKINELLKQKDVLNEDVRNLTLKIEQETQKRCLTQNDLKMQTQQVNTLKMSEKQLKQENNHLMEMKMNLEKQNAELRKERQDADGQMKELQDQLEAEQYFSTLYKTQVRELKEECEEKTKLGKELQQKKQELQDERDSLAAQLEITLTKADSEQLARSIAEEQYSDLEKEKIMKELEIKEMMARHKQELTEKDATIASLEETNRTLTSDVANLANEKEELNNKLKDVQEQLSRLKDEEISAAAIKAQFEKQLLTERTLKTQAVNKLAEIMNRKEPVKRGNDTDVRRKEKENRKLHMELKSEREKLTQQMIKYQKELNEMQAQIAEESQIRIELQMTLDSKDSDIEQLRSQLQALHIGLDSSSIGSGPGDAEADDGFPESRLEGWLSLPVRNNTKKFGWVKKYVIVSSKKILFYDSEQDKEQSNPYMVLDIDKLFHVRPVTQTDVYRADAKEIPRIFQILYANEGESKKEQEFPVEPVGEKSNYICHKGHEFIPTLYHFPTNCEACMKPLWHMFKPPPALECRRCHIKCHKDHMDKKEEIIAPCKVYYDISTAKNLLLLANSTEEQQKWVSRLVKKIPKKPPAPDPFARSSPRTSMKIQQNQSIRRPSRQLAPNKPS
Test: Inhibition of ROCK2

IC50, > 10 µM:
COc1cc2ncnc(Nc3cccc(Cl)c3F)c2cc1CN1CCC1C(N)=O (stereo unspecified)
COCC[C@@H](C(N)=O)N(C)Cc1cc2c(Nc3cccc(Cl)c3F)ncnc2cc1OC
COc1cc2ncnc(Nc3cccc(Cl)c3F)c2cc1CN1CCOCC1C(N)=O (stereo unspecified)
COc1cc2ncnc(Nc3cccc(Cl)c3F)c2cc1CN(C)[C@@H](CO)C(N)=O
COc1cc2ncnc(Nc3cccc(Cl)c3F)c2cc1CN1CCC[C@@H]1C(N)=O
CNC(=O)[C@@H](C)N(C)Cc1cc2c(Nc3cccc(Cl)c3F)ncnc2cc1OC

Molecular target: AMP-activated protein kinase, AMPK
Test: Inhibition of AMPK
Type: protein-complex assay

IC50, > 10 µM:
COc1cc2ncnc(Nc3cccc(Cl)c3F)c2cc1CN1CCC1C(N)=O (stereo unspecified)
COCC[C@@H](C(N)=O)N(C)Cc1cc2c(Nc3cccc(Cl)c3F)ncnc2cc1OC
COc1cc2ncnc(Nc3cccc(Cl)c3F)c2cc1CN1CCOCC1C(N)=O (stereo unspecified)
COc1cc2ncnc(Nc3cccc(Cl)c3F)c2cc1CN(C)[C@@H](CO)C(N)=O
COc1cc2ncnc(Nc3cccc(Cl)c3F)c2cc1CN1CCC[C@@H]1C(N)=O
CNC(=O)[C@@H](C)N(C)Cc1cc2c(Nc3cccc(Cl)c3F)ncnc2cc1OC

Molecular target: Proto-oncogene tyrosine-protein kinase Src (Homo sapiens, UniProt P12931)
Sequence (P12931 2-536 limits assumed): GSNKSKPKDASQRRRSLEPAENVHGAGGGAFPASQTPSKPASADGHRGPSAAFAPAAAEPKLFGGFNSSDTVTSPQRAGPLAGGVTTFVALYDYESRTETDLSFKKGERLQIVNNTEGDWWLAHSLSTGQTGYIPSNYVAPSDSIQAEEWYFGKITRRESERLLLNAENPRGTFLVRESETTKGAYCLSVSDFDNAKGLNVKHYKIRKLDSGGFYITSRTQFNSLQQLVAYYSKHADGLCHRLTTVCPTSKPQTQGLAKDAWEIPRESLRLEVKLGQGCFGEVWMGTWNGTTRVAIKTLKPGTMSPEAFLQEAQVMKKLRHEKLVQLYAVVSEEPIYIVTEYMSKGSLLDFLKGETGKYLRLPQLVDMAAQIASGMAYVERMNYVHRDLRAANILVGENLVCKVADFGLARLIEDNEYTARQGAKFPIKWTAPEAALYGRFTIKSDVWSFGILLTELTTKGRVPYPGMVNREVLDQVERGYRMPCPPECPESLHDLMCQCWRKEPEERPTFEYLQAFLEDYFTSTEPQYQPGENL
Test: Inhibition of Src

IC50, > 10 µM:
COc1cc2ncnc(Nc3cccc(Cl)c3F)c2cc1CN1CCC1C(N)=O (stereo unspecified)
COCC[C@@H](C(N)=O)N(C)Cc1cc2c(Nc3cccc(Cl)c3F)ncnc2cc1OC
COc1cc2ncnc(Nc3cccc(Cl)c3F)c2cc1CN1CCOCC1C(N)=O (stereo unspecified)
COc1cc2ncnc(Nc3cccc(Cl)c3F)c2cc1CN(C)[C@@H](CO)C(N)=O
COc1cc2ncnc(Nc3cccc(Cl)c3F)c2cc1CN1CCC[C@@H]1C(N)=O
CNC(=O)[C@@H](C)N(C)Cc1cc2c(Nc3cccc(Cl)c3F)ncnc2cc1OC

Molecular target: T2, Serine/threonine-protein kinase Chk1 (Homo sapiens, UniProt O14757)
T2 sequence (O14757 whole entry): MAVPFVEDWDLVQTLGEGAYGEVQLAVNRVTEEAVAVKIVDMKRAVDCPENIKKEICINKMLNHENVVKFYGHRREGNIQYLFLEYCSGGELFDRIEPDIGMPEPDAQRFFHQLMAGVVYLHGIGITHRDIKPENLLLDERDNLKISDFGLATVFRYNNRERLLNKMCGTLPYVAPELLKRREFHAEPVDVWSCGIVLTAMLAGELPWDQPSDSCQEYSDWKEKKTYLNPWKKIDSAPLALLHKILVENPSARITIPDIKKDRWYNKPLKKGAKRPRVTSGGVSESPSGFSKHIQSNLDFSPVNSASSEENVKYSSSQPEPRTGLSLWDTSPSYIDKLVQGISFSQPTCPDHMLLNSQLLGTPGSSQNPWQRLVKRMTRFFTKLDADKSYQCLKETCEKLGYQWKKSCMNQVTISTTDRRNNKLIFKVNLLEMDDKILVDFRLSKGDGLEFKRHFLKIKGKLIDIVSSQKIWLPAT
Test: Inhibition of CHK1

IC50, > 10 µM:
COc1cc2ncnc(Nc3cccc(Cl)c3F)c2cc1CN1CCC1C(N)=O (stereo unspecified)
COCC[C@@H](C(N)=O)N(C)Cc1cc2c(Nc3cccc(Cl)c3F)ncnc2cc1OC
COc1cc2ncnc(Nc3cccc(Cl)c3F)c2cc1CN1CCOCC1C(N)=O (stereo unspecified)
COc1cc2ncnc(Nc3cccc(Cl)c3F)c2cc1CN(C)[C@@H](CO)C(N)=O
COc1cc2ncnc(Nc3cccc(Cl)c3F)c2cc1CN1CCC[C@@H]1C(N)=O
CNC(=O)[C@@H](C)N(C)Cc1cc2c(Nc3cccc(Cl)c3F)ncnc2cc1OC

Tested on: not listed separately
Test: Inhibition of CDK

IC50, > 10 µM:
COCC[C@@H](C(N)=O)N(C)Cc1cc2c(Nc3cccc(Cl)c3F)ncnc2cc1OC
COc1cc2ncnc(Nc3cccc(Cl)c3F)c2cc1CN1CCC[C@@H]1C(N)=O
CNC(=O)[C@@H](C)N(C)Cc1cc2c(Nc3cccc(Cl)c3F)ncnc2cc1OC
